US10251892B2, “Bicyclic heterocycles as FGFR4 inhibitors” (Incyte Corporation, priority 2015, dated 2019)

The compounds below were run against FGFR3 enzyme (Homo sapiens (Human), UniProt P22607) (assay: FGFR Enzymatic Assay (peptide phosphorylation, FRET), FGFR3). Settings: IC50 ratio showing FGFR3 selectivity; pre-incubated for 4 hours.
Type: biochemical
Protocol: The inhibitor potency of the exemplified compounds was measured in an enzyme assay that measures peptide phosphorylation using FRET measurements to detect product formation. Inhibitors were serially diluted in DMSO and a volume of 0.5 μL was transferred to the wells of a 384-well plate.
GraphPad prism3 was used to analyze the data.

FGFR3 enzyme, sequence (P22607 23-806): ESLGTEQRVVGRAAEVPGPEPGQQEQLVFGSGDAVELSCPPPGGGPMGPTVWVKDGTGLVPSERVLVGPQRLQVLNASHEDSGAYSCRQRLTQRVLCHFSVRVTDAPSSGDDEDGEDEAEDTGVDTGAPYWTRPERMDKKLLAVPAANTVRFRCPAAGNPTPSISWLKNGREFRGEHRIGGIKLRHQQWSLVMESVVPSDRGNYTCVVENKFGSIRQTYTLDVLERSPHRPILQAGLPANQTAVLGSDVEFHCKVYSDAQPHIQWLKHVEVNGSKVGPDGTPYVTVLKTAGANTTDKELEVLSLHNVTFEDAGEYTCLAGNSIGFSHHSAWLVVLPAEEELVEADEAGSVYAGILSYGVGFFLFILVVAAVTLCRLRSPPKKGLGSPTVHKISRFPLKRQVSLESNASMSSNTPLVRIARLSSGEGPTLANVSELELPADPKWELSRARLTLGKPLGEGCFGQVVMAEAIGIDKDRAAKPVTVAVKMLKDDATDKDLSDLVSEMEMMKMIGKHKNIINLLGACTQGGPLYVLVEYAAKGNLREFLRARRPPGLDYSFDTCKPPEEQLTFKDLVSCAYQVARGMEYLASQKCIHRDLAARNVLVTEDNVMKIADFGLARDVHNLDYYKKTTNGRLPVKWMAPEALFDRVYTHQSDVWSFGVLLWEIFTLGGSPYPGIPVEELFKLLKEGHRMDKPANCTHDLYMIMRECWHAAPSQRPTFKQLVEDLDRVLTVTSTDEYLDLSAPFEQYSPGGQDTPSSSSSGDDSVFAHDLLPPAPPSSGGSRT

SMILES	FGFR1/FGFR3	FGFR4/FGFR3
COc1cc(OC)c(F)c(N2Cc3cnc(-c4cnn(CCN5CCC(OC)CC5)c4)cc3C3(CC3)C2=O)c1F [Example 152, 2′-(2,6-difluoro-3,5-dimethoxyphenyl)-6′-(1-(2-(4-methoxypiperidin-1-yl)ethyl)-1H-pyrazol-4-yl)-1′H-spiro[cyclopropane-1,4′-[2,7]naphthyridin]-3′(2′H)-one]	>5	>3
CCN1C(=O)N(c2c(F)c(OC)cc(OC)c2F)Cc2cnc(-c3ccc(C(=O)NC4CC4)nc3)cc21 [Example 176, N-cyclopropyl-5-(3-(2,6-difluoro-3,5-dimethoxyphenyl)-1-ethyl-2-oxo-1,2,3,4-tetrahydropyrido[4,3-d]pyrimidin-7-yl)picolinamide]	>10	>5
COc1cc(OC)c(F)c(N2Cc3cnc(-c4csc(N(C)C)n4)cc3C3(CC3)C2=O)c1F [Example 160, 2′-(2,6-difluoro-3,5-dimethoxyphenyl)-6′-(2-(dimethylamino)thiazol-4-yl)-1′H-spiro[cyclopropane-1,4′-[2,7]naphthyridin]-3′(2′H)-one]	>5	>5
COc1cc(OC)c(F)c(N2Cc3cnc(-c4ccncc4)cc3C3(CC3)C2=O)c1F [Example 185, 2′-(2,6-difluoro-3,5-dimethoxyphenyl)-6′-(pyridin-4-yl)-1′H-spiro[cyclopropane-1,4′-[2,7]naphthyridin]-3′(2′H)-one]	>3	>3
CCN1C(=O)N(c2c(F)c(OC)cc(OC)c2F)Cc2cnc(-c3ccc(CN4CC[C@H](C#N)C4)cc3)cc21 [Example 25, (S)-1-(4-(3-(2,6-difluoro-3,5-dimethoxyphenyl)-1-ethyl-2-oxo-1,2,3,4-tetrahydropyrido[4,3-d]pyrimidin-7-yl)benzyl)pyrrolidine-3-carbonitrile]	>5	>5
COc1cc(OC)c(F)c(N2Cc3cnc(-c4cn(C)nc4C)cc3N(c3cc(F)cc(F)c3)C2=O)c1F [Example 103, 3-(2,6-difluoro-3,5-dimethoxyphenyl)-1-(3,5-difluorophenyl)-7-(1,3-dimethyl-1H-pyrazol-4-yl)-3,4-dihydropyrido[4,3-d]pyrimidin-2(1H)-one]	>3	>5
COc1cc(OC)c(F)c(N2Cc3cnc(-c4cn(CC#N)nc4C)cc3C3(CC3)C2=O)c1F [Example 153, 2-(4-(2′-(2,6-difluoro-3,5-dimethoxyphenyl)-3′-oxo-2′,3′-dihydro-1′H-spiro[cyclopropane-1,4′-[2,7]naphthyridine]-6′-yl)-3-methyl-1H-pyrazol-1-yl)acetonitrile]	>5	>3
COc1cc(OC)c(F)c(N2Cc3cnc(-c4cnn(CCN5CCC(OC)C5)c4)cc3C3(CC3)C2=O)c1F (centres unmarked) [Example 161, 2′-(2,6-difluoro-3,5-dimethoxyphenyl)-6′-(1-(2-(3-methoxypyrrolidin-1-yl)ethyl)-1H-pyrazol-4-yl)-1′H-spiro[cyclopropane-1,4′-[2,7]naphthyridin]-3′(2′H)-one]	>5	>3
COc1cc(OC)c(F)c(N2Cc3cnc(-c4cn(C)nc4C)cc3N(CCc3cnn(C)c3)C2=O)c1F [Example 114, 3-(2,6-difluoro-3,5-dimethoxyphenyl)-7-(1,3-dimethyl-1H-pyrazol-4-yl)-1-(2-(1-methyl-1H-pyrazol-4-yl)ethyl)-3,4-dihydropyrido[4,3-d]pyrimidin-2(1H)-one]	>3	>5
COc1cc(OC)c(F)c(N2Cc3cnc(-c4cn(C)nc4C)cc3N(c3ccc(F)cc3)C2=O)c1F [Example 40, 3-(2,6-difluoro-3,5-dimethoxyphenyl)-7-(1,3-dimethyl-1H-pyrazol-4-yl)-1-(4-fluorophenyl)-3,4-dihydropyrido[4,3-d]pyrimidin-2(1H)-one]	>10	>10
COc1cc(OC)c(F)c(N2Cc3cnc(-c4cn(C)nc4C)cc3N(c3cnc(C)cn3)C2=O)c1F [Example 107, 3-(2,6-difluoro-3,5-dimethoxyphenyl)-7-(1,3-dimethyl-1H-pyrazol-4-yl)-1-(5-methylpyrazin-2-yl)-3,4-dihydropyrido[4,3-d]pyrimidin-2(1H)-one]	>3	>10
CCCNC(=O)c1ccc(-c2cc3c(cn2)CN(c2c(F)c(OC)cc(OC)c2F)C(=O)N3CC)cn1 [Example 179, 5-(3-(2,6-difluoro-3,5-dimethoxyphenyl)-1-ethyl-2-oxo-1,2,3,4-tetrahydropyrido[4,3-d]pyrimidin-7-yl)-N-propylpicolinamide]	>5	>10
COc1cc(OC)c(F)c(N2Cc3cnc(-c4cn(C)nc4C)cc3N(c3cncnc3)C2=O)c1F [Example 61, 3-(2,6-difluoro-3,5-dimethoxyphenyl)-7-(1,3-dimethyl-1H-pyrazol-4-yl)-1-(pyrimidin-5-yl)-3,4-dihydropyrido[4,3-d]pyrimidin-2(1H)-one]	>10	>5
CCc1cnc(N2C(=O)N(c3c(F)c(OC)cc(OC)c3F)Cc3cnc(-c4cn(C)nc4C)cc32)cn1 [Example 106, 3-(2,6-difluoro-3,5-dimethoxyphenyl)-7-(1,3-dimethyl-1H-pyrazol-4-yl)-1-(5-ethylpyrazin-2-yl)-3,4-dihydropyrido[4,3-d]pyrimidin-2(1H)-one]	>3	>5
CCN1C(=O)N(c2c(F)c(OC)cc(OC)c2F)Cc2cnc(-c3cn(CC)nc3C)cc21 [Example 168, 3-(2,6-difluoro-3,5-dimethoxyphenyl)-1-ethyl-7-(1-ethyl-3-methyl-1H-pyrazol-4-yl)-3,4-dihydropyrido[4,3-d]pyrimidin-2(1H)-one]	>5	>3
COc1cc(OC)c(F)c(N2Cc3cnc(-c4cn(C)nc4C)cc3N(c3ccc(S(C)(=O)=O)cc3)C2=O)c1F [Example 98, 3-(2,6-difluoro-3,5-dimethoxyphenyl)-7-(1,3-dimethyl-1H-pyrazol-4-yl)-1-(4-(methylsulfonyl)phenyl)-3,4-dihydropyrido[4,3-d]pyrimidin-2(1H)-one]	>5	>10
COc1ccc(CN2C(=O)N(c3c(F)c(OC)cc(OC)c3F)Cc3cnc(-c4cn(C)nc4C)cc32)cn1 [Example 59, 3-(2,6-difluoro-3,5-dimethoxyphenyl)-7-(1,3-dimethyl-1H-pyrazol-4-yl)-1-((6-methoxypyridin-3-yl)methyl)-3,4-dihydropyrido[4,3-d]pyrimidin-2(1H)-one]	>10	>10
COc1cc(OC)c(F)c(N2Cc3cnc(-c4cn(C)nc4C)cc3N(Cc3cnccn3)C2=O)c1F [Example 85, 3-(2,6-difluoro-3,5-dimethoxyphenyl)-7-(1,3-dimethyl-1H-pyrazol-4-yl)-1-(pyrazin-2-ylmethyl)-3,4-dihydropyrido[4,3-d]pyrimidin-2(1H)-one]	>5	>10
COc1cc(OC)c(F)c(N2Cc3cnc(-c4cn(C)nc4C)cc3N(C3CCN(S(C)(=O)=O)CC3)C2=O)c1F [Example 71, 3-(2,6-difluoro-3,5-dimethoxyphenyl)-7-(1,3-dimethyl-1H-pyrazol-4-yl)-1-(1-(methylsulfonyl)piperidin-4-yl)-3,4-dihydropyrido[4,3-d]pyrimidin-2(1H)-one]	>5	>3
COc1cc(OC)c(F)c(N2Cc3cnc(-c4cn(C)nc4C)cc3N(Cc3csc(C)n3)C2=O)c1F [Example 95, 3-(2,6-difluoro-3,5-dimethoxyphenyl)-7-(1,3-dimethyl-1H-pyrazol-4-yl)-1-((2-methylthiazol-4-yl)methyl)-3,4-dihydropyrido[4,3-d]pyrimidin-2(1H)-one]	>5	>10
CCN1C(=O)N(c2c(F)c(OC)cc(OC)c2F)Cc2cnc(-c3ccc(C(=O)NCCO)nc3)cc21 [Example 177, 5-(3-(2,6-difluoro-3,5-dimethoxyphenyl)-1-ethyl-2-oxo-1,2,3,4-tetrahydropyrido[4,3-d]pyrimidin-7-yl)-N-(2-hydroxyethyl)picolinamide]	>5	>10
CCN1C(=O)N(c2c(F)c(OC)cc(OC)c2F)Cc2cnc(-c3cn(CC(=O)N4CCOCC4)nc3C)cc21 [Example 51, 3-(2,6-difluoro-3,5-dimethoxyphenyl)-1-ethyl-7-(3-methyl-1-(2-morpholino-2-oxoethyl)-1H-pyrazol-4-yl)-3,4-dihydropyrido[4,3-d]pyrimidin-2(1H)-one]	>1	>1
COc1cc(OC)c(F)c(N2Cc3cnc(-c4cn(C)nc4C)cc3N(Cc3cc(C)no3)C2=O)c1F [Example 35, 3-(2,6-difluoro-3,5-dimethoxyphenyl)-7-(1,3-dimethyl-1H-pyrazol-4-yl)-1-((3-methylisoxazol-5-yl)methyl)-3,4-dihydropyrido[4,3-d]pyrimidin-2(1H)-one]	>5	>10
CNS(=O)(=O)c1cccc(N2C(=O)N(c3c(F)c(OC)cc(OC)c3F)Cc3cnc(-c4cn(C)nc4C)cc32)c1 [Example 111, 3-(3-(2,6-difluoro-3,5-dimethoxyphenyl)-7-(1,3-dimethyl-1H-pyrazol-4-yl)-2-oxo-3,4-dihydropyrido[4,3-d]pyrimidin-1(2H)-yl)-N-methylbenzenesulfonamide]	>3	>5
COc1cc(OC)c(F)c(N2Cc3cnc(-c4cn(C)nc4C)cc3N(c3ccnnc3)C2=O)c1F [Example 57, 3-(2,6-difluoro-3,5-dimethoxyphenyl)-7-(1,3-dimethyl-1H-pyrazol-4-yl)-1-(pyridazin-4-yl)-3,4-dihydropyrido[4,3-d]pyrimidin-2(1H)-one]	>10	>10
